Results published in patent US20250230193A1, “CYCLIC COMPOUND HAVING SELECTIVE KRAS INHIBITORY EFFECT ON HRAS AND NRAS” (CHUGAI SEIYAKU KABUSHIKI KAISHA, priority 2022, published 2025).
*1 amine or outer side, *2 acyl side, *3 side chain or, on linkers, in order; H or OH if unused. Where a SMILES comes first, the peptide text is derived from it. Bridges are numbered along the chain shown (N, C = ends). [ ]: non-standard residue; d: D form. The star is where a group is joined. hPhe(3,5-F2-4-CF3) = N[C@@H](CCc1cc(F)c(C(F)(F)F)c(F)c1)C(=O)O; hPhe(3-Cl-4-CF3) = N[C@@H](CCc1ccc(C(F)(F)F)c(Cl)c1)C(=O)O; NPrPhe(4-CF3) = CCCN[C@@H](Cc1ccc(C(F)(F)F)cc1)C(=O)O; X26 = COCCCN([C@@H](Cc1ccc(C)cc1)C(=O)[*:2])[*:1]; NMeGly(cPent) = CN[C@H](C(=O)O)C1CCCC1; Nva(3-Et) = CCC(CC)[C@H](N)C(=O)O; Hyp = O=C(O)[C@@H]1C[C@@H](O)CN1; NMeD = CN[C@@H](CC(=O)O)C(=O)O; NMeL = CN[C@@H](CC(C)C)C(=O)O; Morpholide = C1CN(*)CCO1; Ac5c = NC1(C(=O)O)CCCC1; NEtG = CCNCC(=O)O; Sar = CNCC(=O)O

Tests used:
[1] = molecular target: GDP-bound NRAS wild-type protein (Homo sapiens, UniProt P01111); assay: Binding to NRAS by surface plasmon resonance (SPR), Single Cycle Kinetics; details: SPR
Chain of GDP-bound NRAS wild-type protein (P01111 whole entry): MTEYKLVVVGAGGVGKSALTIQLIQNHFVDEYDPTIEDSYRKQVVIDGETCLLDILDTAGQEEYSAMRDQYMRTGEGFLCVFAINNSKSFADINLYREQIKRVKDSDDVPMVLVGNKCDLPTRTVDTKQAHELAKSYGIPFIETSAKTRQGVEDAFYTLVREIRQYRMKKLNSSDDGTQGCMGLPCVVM

[2] = molecular target: GDP-bound HRAS wild-type protein (Homo sapiens, UniProt P01112); assay: Binding to HRAS by surface plasmon resonance (SPR), Single Cycle Kinetics; details: SPR
Chain of GDP-bound HRAS wild-type protein (P01112 whole entry): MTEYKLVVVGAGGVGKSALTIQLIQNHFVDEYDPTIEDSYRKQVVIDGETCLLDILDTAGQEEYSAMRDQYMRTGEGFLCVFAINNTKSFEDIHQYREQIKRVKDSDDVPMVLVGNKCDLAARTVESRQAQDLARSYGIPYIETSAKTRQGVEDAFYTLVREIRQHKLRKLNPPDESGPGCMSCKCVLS

[3] = KD ratio, GDP-bound NRAS wild-type vs GDP-bound KRAS wild-type
[4] = KD ratio, GDP-bound HRAS wild-type vs GDP-bound KRAS wild-type

Compound: CCCN(C)C(=O)[C@@H]1CC(=O)N(C)[C@@H](COC)C(=O)N[C@@H]([C@@H](C)CC)C(=O)N(C)CC(=O)N(C)[C@H]2C/C=C\CCN(C2=O)[C@@H](Cc2ccc(C(F)(F)F)cc2)C(=O)N(C)CC(=O)N[C@@H](CCc2cc(F)c(C(F)(F)F)c(F)c2)C(=O)N2CCC[C@H]2C(=O)NC2(CC(C)(C)C2)C(=O)N(C)[C@@H](C2CCCC2)C(=O)N1C [PP1729]
- NRAS/KRAS (ratio of KD value for NRAS to KD value for KRAS) [1, 3]: AA (a compound having 20 or more is denoted as AA)
- HRAS/KRAS (ratio of KD value for HRAS to KD value for KRAS) [2, 4]: A (a compound having 10 or more and less than 20 is denoted as A)

Compound: CCCN1C(=O)CN(C)C(=O)CN(C)C(=O)[C@H](C(CC)CC)NC(=O)[C@H](CC(C)C)N(C)C(=O)C[C@@H](C(=O)N(C)C)N(C)C(=O)[C@H](C2CCCC2)N(C)C(=O)C2(CCCC2)NC(=O)[C@@H]2CCCN2C(=O)[C@H](CCc2cc(F)c(C(F)(F)F)c(F)c2)NC(=O)CN(C)C(=O)[C@@H]1Cc1ccc(C(F)(F)F)cc1 [PP0747] ([NMeL][Nva(3-Et)][Sar][Sar][NPrPhe(4-CF3)][Sar][hPhe(3,5-F2-4-CF3)]P[Ac5c][NMeGly(cPent)][NMeD]-NMe2; lactam N-11)
- NRAS/KRAS (ratio of KD value with respect to GDP-bound NRAS wild-type protein to KD value with respect to KRAS) [1]: B (a compound having 3 or more and less than 10 is denoted as B)
- HRAS/KRAS (ratio of KD value with respect to GDP-bound HRAS wild-type protein to KD value with respect to KRAS) [2]: C (A compound having a KD ratio of 0.1 or more and less than 3 is denoted as C)

Compound: CC[C@H](C)[C@@H]1NC(=O)[C@H](CC(C)C)N(C)C(=O)C[C@@H](C(=O)N2CCOCC2)N(C)C(=O)[C@H](CC(F)(F)F)N(C)C(=O)C2(CCCC2)NC(=O)[C@@H]2CCCN2C(=O)[C@H](CCc2cc(F)c(C(F)(F)F)c(F)c2)NC(=O)CN(C)C(=O)[C@H](Cc2ccc(C(F)(F)F)cc2)N2CCCC[C@@H](C2=O)N(C)C(=O)CN(C)C1=O [PP0568]
- NRAS/KRAS (ratio of KD value with respect to GDP-bound NRAS wild-type protein to KD value with respect to KRAS) [1]: B (a compound having 3 or more and less than 10 is denoted as B)
- HRAS/KRAS (ratio of KD value with respect to GDP-bound HRAS wild-type protein to KD value with respect to KRAS) [2]: B (a compound having 3 or more and less than 10 is denoted as B)

Compound: CCO[C@@H]1C[C@H]2C(=O)NC3(CCC3)C(=O)N(C)[C@@H](C3CCCC3)C(=O)N(C)[C@H](C(=O)N(C)CC)CC(=O)N(C)[C@@H](C(C)C)C(=O)N[C@@H]([C@@H](C)CC)C(=O)N(C)CC(=O)N(C)[C@H]3C/C=C\CCN(C3=O)[C@@H](Cc3ccc(C(F)(F)F)cc3)C(=O)N(C)CC(=O)N[C@@H](CCc3cc(F)c(C(F)(F)F)c(F)c3)C(=O)N2C1 [PP1990]
- NRAS/KRAS (ratio of KD value for NRAS to KD value for KRAS) [1, 3]: A (a compound having 10 or more and less than 20 is denoted as A)
- HRAS/KRAS (ratio of KD value for HRAS to KD value for KRAS) [2, 4]: A (a compound having 10 or more and less than 20 is denoted as A)

Compound: CCCN1C(=O)CN(C)C(=O)CN(CC)C(=O)[C@H]([C@@H](C)CC)NC(=O)[C@H](CC(C)C)N(C)C(=O)C[C@@H](C(=O)N2CCOCC2)NC(=O)[C@H](C2CCCC2)N(C)C(=O)C2(CCCC2)NC(=O)[C@@H]2C[C@@H](OCC)CN2C(=O)[C@H](CCc2ccc(C(F)(F)F)c(Cl)c2)NC(=O)CN(C)C(=O)[C@@H]1Cc1ccc(C(F)(F)F)cc1 [PP0335] ([NMeL]I[NEtG][Sar][NPrPhe(4-CF3)][Sar][hPhe(3-Cl-4-CF3)][Hyp](Et)[Ac5c][NMeGly(cPent)]D-Morpholide; lactam N-11)
- NRAS/KRAS (ratio of KD for GDP-bound NRAS wild-type to KD for KRAS) [1]: B (a compound having 3 or more and less than 10 is denoted as B)
- HRAS/KRAS (ratio of KD for GDP-bound HRAS wild-type to KD for KRAS) [2]: C (A compound having a KD ratio of 0.1 or more and less than 3 is denoted as C)

Compound: CCO[C@@H]1CCN2C(=O)[C@H](CCc3cc(F)c(C(F)(F)F)c(F)c3)NC(=O)CN(C)C(=O)[C@H](Cc3ccc(C(F)(F)F)cc3)N3CCCCC[C@@H](C3=O)N(C)C(=O)CN(C)C(=O)[C@H]([C@@H](C)CC)NC(=O)[C@H](CC(C)C)N(C)C(=O)C[C@@H](C(=O)N3CCOCC3)N(C)C(=O)[C@H](C3CCCC3)N(C)C(=O)C3(CCC3)NC(=O)[C@H]12 [PP1082]
- NRAS/KRAS (ratio of KD value with respect to NRAS to KD value with respect to KRAS) [1, 3]: A (a compound having 10 or more and less than 20 is denoted as A)
- HRAS/KRAS (ratio of KD value with respect to HRAS to KD value with respect to KRAS) [2, 4]: B (a compound having 3 or more and less than 10 is denoted as B)

Compound: CC[C@H](C)[C@@H]1NC(=O)[C@H](CC(C)C)N(C)C(=O)C[C@@H](C(=O)N2CCOCC2)N(C)C(=O)[C@H](C2CCCC2)N(C)C(=O)C2(CCCC2)NC(=O)[C@@H]2CCCN2C(=O)[C@H](CCc2ccc(C(F)(F)F)c(Cl)c2)NC(=O)CN(C)C(=O)[C@H](Cc2ccc(C)cc2)N(CCCOC)C(=O)CN(C)C(=O)CN(C)C1=O [PP0105] ([NMeL]I[Sar][Sar][X26][Sar][hPhe(3-Cl-4-CF3)]P[Ac5c][NMeGly(cPent)][NMeD]-Morpholide; lactam N-11)
- NRAS/KRAS (ratio of KD for GDP-bound NRAS wild-type to KD for KRAS) [1]: B (a compound having 3 or more and less than 10 is denoted as B)
- HRAS/KRAS (ratio of KD for GDP-bound HRAS wild-type to KD for KRAS) [2]: C (A compound having a KD ratio of 0.1 or more and less than 3 is denoted as C)
